5 compounds from article PMC7448123, “Ru(II) Complexes Bearing O, O-Chelated Ligands Induced Apoptosis in A549 Cells through the Mitochondrial Apoptotic Pathway” (Bioinorganic Chemistry and Applications, 2020) can be followed below.

One series relates to MCF-7 (breast cancer). Nature of the series: MTT cytotoxicity assay, MCF-7. In kind it is cell-based, human.
Series [1] has as its system A549 (human lung carcinoma). Nature of the series: MTT cytotoxicity assay, A549. The following applies: 48 h; for IC50: MTT. Format: cell-based.
Description: (§2) All cell lines were cultured in Roswell Park Memorial Institute 1640 culture media supplemented with 10% fetal bovine serum and incubated at 37°C in a 5% CO2 incubator. The IC50 values in Table 1 were measured by MTT assay according to our previous report [16].
(§3) The cell viability was obtained by the MTT assay.
In series [2] the test system is HeLa (human cervical cancer). The series can be described thus: MTT cytotoxicity assay, HeLa. In kind it is cell-based. The following applies: 48 h.
Description: as §2, §3
Series [3] relates to HepG2 (human hepatocellular carcinoma). The series can be described thus: MTT cytotoxicity assay, HepG2. Format: cell-based.
Description: as §2, §3
Series [4] in a line: Solution stability by UV-Vis absorption in water and CH3CN. Format: physicochemical. The following applies: 298 K, over 24 h, 20 μM. As to the method:
(N-N = dip, dmp) and salicylic acid in the presence of sodium hydroxide. The crude product was purified by chromatography over alumina. The obtained compounds were analyzed by elemental analysis, ESI-MS, ^1H NMR, FTIR, and UV-Vis absorption spectroscopy, and the results were shown in Figures S1–S7 in Supplementary Materials. […] In the UV-visible spectral regions, both complexes consist of two well-resolved absorption bands. In the visible region, these two complexes present a strong MLCT transition at 500–600 nm attributed to the overlap Ru(dπ)-dip or dmp (π^∗) and Ru(dπ)-SA (π^∗). The intense band occurring between 250 nm and 300 nm is attributed to an intra-ligand (IL) π-π^∗ transition by comparing with the spectra of other Ru(II)-polypyridyl complexes.

Series [5] deals with A549 cells. Nature of the series: Hoechst 33342 nuclear staining. The following applies: 20 μΜ, 24 h. In kind it is cell-based, human. The protocol:
(§1) First, A549 cells were incubated in six-well plates for 12 h and then exposed to Ru(II) complexes for 24 h. After incubation, cell nuclei were stained with Hoechst 33342 (5 μg/mL) for 10 min, washed twice with PBS, and then photographed using an inverted fluorescence microscope. […] The suspension was stained with 5 μL Annexin V-FITC and 10 μL PI at room temperature for 15 min and then analyzed using the flow cytometer.

Series [6] can be described thus: Stability towards GSH and BSA by UV-Vis absorption. In kind it is physicochemical. The following applies: 12 h, 37 °C, PBS buffer (pH 7.4). The protocol:
Investigating the hydrolysis in the presence of biorelevant molecules is very important to assess the chemical stability and biological activities of these title complexes.
Figure S8. UV/vis absorption of Ru-1 in the absence and presence of (A) GSH or (B) BSA. All spectra were acquired 12 h after GSH or BSA addition at 37 °C in PBS buffer (pH 7.4).
Figure S9. UV/vis absorption of Ru-2 in the absence and presence of (A) GSH or (B) BSA. All spectra were acquired 12 h after GSH or BSA addition at 37 °C in PBS buffer (pH 7.4).

Series [7] concerns BEAS-2B (immortalized human bronchial epithelial cells). The series can be described thus: MTT cytotoxicity assay, normal BEAS-2B. In kind it is cell-based. The following applies: 48 h.
Description: as §2, §3
Series [8] has as its system A549 cells. The series can be described thus: Cellular uptake and subcellular distribution by ICP-MS. In kind it is cell-based, human. The protocol:
A549 cells were seeded into six-well plates (5.0 × 10^5 cells per well) and grown overnight at 37°C in a 5% CO2 incubator. The cells were incubated with the different concentrations (5, 10, 15, and 20 μM) of Ru(II) complexes for different time intervals (1, 3, and 6 h). After the incubation, the cells were harvested and washed twice with PBS. Cell Mitochondria Isolation Kit was used to extract the nuclear, mitochondrial, and cytoplasmic fractions of the A549 cells. The pellets were digested with 3 mL concentrated nitric acid and 1 mL perhydrol for 24 h and then diluted to 5 mL with ultrapure water. Finally, ICP-MS was used to determine the amount of Ru(II) complexes uptaken by A549 cells.
It is generally acknowledged that the cellular uptake feature of transition metal-based compounds is an essential factor for their biological activities. As repeatedly reported by previous ruthenium complex-related studies, the more cellular uptake results in higher cytotoxicity. The cellular ruthenium concentration was determined by using ICP-MS after 1, 3, and 6 h of exposure to 5, 10, 15, and 20 μM Ru(II) complexes (Figure 2), respectively, and the results were reported as ng of ruthenium per 10^6 cell number.

The test system of series [9] is A549 cells. Nature of the series: Intracellular ROS level, DCFH-DA flow cytometry. The following applies: 20 μM, 12 h. In kind it is cell-based, human. The protocol:
The mitochondrial membrane potential (MMP) of A549 cells was analyzed by using an inverted fluorescence microscope and flow cytometry. […] For microscope observation, the collected cells were incubated in complete medium containing JC-1 (10 μg/mL) for 30 min and washed with PBS twice and then imaged by an inverted fluorescence microscope (Nikon, Japan). For flow cytometry analysis, the cells were trypsinized and washed twice with PBS and then incubated in 500 μL PBS containing JC-1 (10 μg/mL) for 30 min at 37°C. The cells were analyzed by flow cytometer immediately. The intracellular ROS level of A549 cells was detected after DCFH-DA stain, as illustrated in our new publication.
Increasing intracellular ROS levels can trigger cell apoptosis. […] To explore the roles of ROS in Ru(II) complex-induced cell apoptosis, we detected intracellular ROS levels by using an inverted fluorescence microscope and flow cytometry after staining A549 cells with DCFH-DA fluorescent dye.

The subject of series [10] is A549 cells. Nature of the series: Annexin V-FITC/PI apoptosis flow cytometry. In kind it is cell-based, human. The following applies: 24 h. As to the method: as §1
Series [11] concerns A549 cells. Nature of the series: Comet assay (single-cell gel electrophoresis), DNA damage. Format: cell-based, human. The following applies: 10 μM, 12 h. As to the method: Single-cell gel electrophoresis was performed to detect DNA damage, as previously described. Comet assay was performed according to the manufacturer's instructions. DNA was stained with SYBR Green I (Trevigen) and imaged under an inverted fluorescence microscope.
Excessive intracellular ROS can activate DNA damaged sensor proteins and lead to DNA damage, an essential hallmark of cell apoptosis. Indeed, the DNA damage effect has been observed in many previously developed Ru(II) complexes. To determine whether or not these complexes can induce DNA damage, the single-cell gel electrophoresis assay (comet assay) was conducted in our study. […] Also, the comet assay (DNA fragments appearance) could serve as a mark for apoptosis assessment. As shown in Figure 6(a), in the control group, there was no comet-like cell observed. […] Increasing the concentration to 20 μM recorded markedly higher levels of comet tails, showing that more DNA fragmentation has occurred.

Molecules are shown by their SMILES. Bounds are passed on as bounds.

Description for MCF-7 (breast cancer): as §2, §3

Consider `O=C(O)c1ccccc1O` [SA, salicylic acid], for which the IC50 is more than 200 µM in the series with MCF-7 (breast cancer) (Homo sapiens, MCF7, 48 h); more than 200 µM in [1] (Homo sapiens, A549); more than 200 µM in series [2] (Homo sapiens, HeLa); more than 200 µM in series [3] (Homo sapiens, HepG2, 48 h).
For the compound `Cc1ccc2ccc3ccc(C)nc3c2n1.Cc1ccc2ccc3ccc(C)nc3c2n1.O=C1[O][Ru][O]c2ccccc21` [Ru-2, [Ru(dmp)2(SA)]], the IC50 in the series with MCF-7 (breast cancer) (48 h) was 45.7 ± 3.7 µM; in series [7], 48.1 ± 3.7 µM; in [1], 30.1 ± 1.2 µM; in series [2], 32.5 ± 2.4 µM; in series [3] (48 h), 26.4 ± 2.1 µM. Besides, the “change in UV-Vis absorption spectra (solution stability)” value in series [4] is on record as “no significant change”. The “apoptotic features, Hoechst 33342 staining” value in the series with A549 cells [5] is “chromatin condensation, nuclear fragmentation, and plasma membrane blebbing”. Further, the “change in characteristic absorption with excessive GSH or BSA (stability)” value in [6] is listed as “no significant change”. The “Intracellular content of Ru” value in the series on A549 cells [8] (5 μM, 1 h) is 85.4 ± 9.3 ng Ru/10^6 A549 cell number; with A549 cells [8] (5 μM, 3 h), 112.4±9.5 ng Ru/10^6 A549 cell number; in the series on A549 cells [8] (5 μM, 6 h) it was 142.5±9.6 ng Ru/10^6 A549 cell number; with A549 cells [8] (10 μM, 1 h) it was 99.4±9.6 ng Ru/10^6 A549 cell number; with A549 cells [8] (10 μM, 3 h), 134.6±8.3 ng Ru/10^6 A549 cell number; in the series on A549 cells [8] (10 μM, 6 h) it was 173.2±8.9 ng Ru/10^6 A549 cell number. Moreover, the “Intracellular content of Ru” value is given as 115.8±11.7 ng Ru/10^6 A549 cell number in the series on A549 cells [8] (15 μM, 1 h); 159.4±8.5 ng Ru/10^6 A549 cell number in the series with A549 cells [8] (15 μM, 3 h); 204.6±8.9 ng Ru/10^6 A549 cell number in the series with A549 cells [8] (15 μM, 6 h); 138.7±15.3 ng Ru/10^6 A549 cell number in the series with A549 cells [8] (20 μM, 1 h); 181.3±9.3 ng Ru/10^6 A549 cell number in the series with A549 cells [8] (20 μM, 3 h); 235.2 ± 16.6 ng Ru/10^6 A549 cell number with A549 cells [8] (20 μM, 6 h). In the series with A549 cells [9], the “MFI higher than the control group” value is listed as approximately 1.9 fold. The entries for the “early apoptotic cells (I4)” value in the series on A549 cells [10] (5 μM), in the series with A549 cells [10] (10 μM) and with A549 cells [10] (20 μM) were 2.79%, 15.83% and 15.47%, respectively. Besides, the “late apoptotic/necrotic cells (I2)” value in the series on A549 cells [10] (5 μM) was 0.00%; in the series with A549 cells [10] (20 μM), 10.19%. The “DNA fragmentation, comet assay” value in the series on A549 cells [11] is reported as “well-formed comet tails”.
In the case of `[Cl-].[Cl-].[Ru+2].c1ccc(-c2ccnc3c2ccc2c(-c4ccccc4)ccnc23)cc1.c1ccc(-c2ccnc3c2ccc2c(-c4ccccc4)ccnc23)cc1` [Ru(dip)2Cl2, cis-[Ru(dip)2Cl2]], the IC50 in the series with MCF-7 (breast cancer) (48 h) is 135 ± 7.9 µM; in series [1], 138 ± 6.7 µM; in [2], 116 ± 6.8 µM; in series [3] (48 h), 108 ± 5.4 µM.
For `Cc1ccc2ccc3ccc(C)nc3c2n1.Cc1ccc2ccc3ccc(C)nc3c2n1.[Cl-].[Cl-].[Ru+2]` [Ru(dmp)2Cl2, cis-[Ru(dmp)2Cl2]], the 50% inhibitory concentration (IC50) with MCF-7 (breast cancer) (48 h) was more than 200 µM; in series [1], more than 200 µM; in [2] it was more than 200 µM; in [3] (48 h) it was 169 ± 6.2 µM.
For `N.N.[Cl][Pt][Cl]` [Cisplatin], the concentration for half-maximal inhibition (IC50) is 16.2 ± 2 µM in the series on MCF-7 (breast cancer) (48 h); 21.4 ± 1.5 µM in series [7]; 27.2 ± 1.4 µM in [1]; 18.3 ± 1.2 µM in series [2]; 30.2 ± 2 µM in series [3] (48 h). The “SI (selectivity index) = IC50 (BEAS-2B)/IC50 (A549)” value in [1] was determined as 0.8.
